For test [1], the system named is LP-1 cell line (FGF-1/Heparin induced pERK). Put plainly: Cell-based pERK ELISA, LP-1 cells. Conditions: Homo sapiens, LP-1, read-out: LP-1 pERK ELISA (μM).
The test system of test [2] is parental wild-type Ba/F3 cells. Description: Ba/F3 (WT) cell proliferation assay (Alamar Blue). Format: cell-based. The settings on record: Mus musculus; for inhibition at 10 µM / inhibition at 3 µM / inhibition at 1 µM: BaF3, read-out: BaF3 WT prolif, % inhibition.
[3] abbreviates: BaF3, 72 hours, Alamar Blue, read-out: BaF3 WT prolif.
The mark [4] stands for this setting: BaF3, 72 h, read-out: BaF3 WT prolif (μM).

Structures can show the parent of a compound that is named as a salt. Where two headings read alike, the source gives them in different places.

Turning to `Cc1nccn1-c1ccn2c(-c3cccc(NC(=O)NCC(F)(F)F)c3)cnc2c1` [Example 116, 1-{3-[7-(2-Methylimidazol-1-yl)-1,7-dihydroimidazol[1,2-a]pyridin-3-yl]-phenyl}-3-(2,2,2-trifluoroethyl)urea], the IC50 in test [1] is 1.9 µM.

On to `O=C(NCC(F)(F)F)Nc1cncc(-c2cnc3cc(-c4cccnn4)ccn23)c1` [Example 20, 1-[5-(7-Pyridazin-3-ylimidazo[1,2-a]pyridin-3-yl)pyridin-3-yl]-3-(2,2,2-trifluoroethyl)urea], for which, in test [1], the IC50 is 1.1 µM.

As for `O=C(Nc1cccc(-c2cnc3cc(-c4nncs4)ccn23)c1)NC1CC1` [Example 158, 1-Cyclopropyl-3-[3-(7-[1,3,4]thiadiazol-2-yl-imidazo[1,2-a]pyridin-3-yl)-phenyl]-urea], the IC50 in test [2] (setting [3]) came out at 2.9 µM.

Take `Cc1nc(N)cc(-c2ccn3c(-c4cccc(NC(=O)NCC(F)(F)F)c4)cnc3c2)n1` [Example 208]: in test [2], the inhibition (usually the relative decrease from the control value, in per cent) at 10 µM is 21%.

Take `Cc1cc2ncc(-c3cccc(NC(=O)NCC(F)(F)F)c3)n2cc1C` [Example 77, 1-[3-(6,7-Dimethyl-imidazo[1,2-a]pyridin-3-yl)-phenyl]-3-(2,2,2-trifluoro-ethyl)-urea formate]: the inhibition at 10 µM in test [2] is 53%.

`CNC(=O)c1cc(C)nc(-c2ccn3c(-c4cccc(NC(=O)NCC(F)(F)F)c4)cnc3c2)n1` [Example 222]: the IC50 in test [2] (setting [3]) is 2.3 µM.

With `O=C(NCC(F)(F)F)Nc1cccc(-c2cnc3cc(-c4ncc(C(F)(F)F)cn4)ccn23)c1` [Example 244], the inhibition at 3 µM in test [2] turned out to be 17%.

For `Cc1cc(N)nc(-c2ccn3c(-c4cccc(NC(=O)NCC(F)(F)F)c4)cnc3c2)n1` [Example 171], the inhibition at 1 µM in test [2] is 16%.

For the compound `CSc1nc(N)cc(-c2ccn3c(-c4cccc(NC(=O)NCC(F)(F)F)c4)cnc3c2)n1` [Example 205], the IC50 in test [2] (setting [3]) is 9.8 µM.

For the compound `O=C(NCC(F)(F)F)Nc1cccc(-c2cnc3cc(-c4ccc(CCO)cn4)ccn23)c1` [Example 122, 1-(3-{7-[5-(2-Hydroxy-ethyl)-pyridin-2-yl]-imidazo[1,2-a]pyridin-3-yl}-phenyl)-3-(2,2,2-trifluoro-ethyl)-urea], the IC50 in test [2] (setting [3]) was 2.4 µM.

In the case of `Nc1nc(-c2ccn3c(-c4cc(F)cc(NC(=O)NCC(F)(F)F)c4)cnc3c2)ncc1F` [Compound 305], the inhibition at 10 µM in test [2] stood at 6%.

For the compound `O=C(NCC(F)(F)F)Nc1cc(Cl)cc(-c2cnc3cc(-c4ccnc(C(F)(F)F)n4)ccn23)c1` [Compound 297], in test [2] (setting [3]), the IC50 amounted to 5.5 µM.

In the case of `O=C(NCC(F)(F)F)Nc1cccc(-c2cnc3cc(-c4cnn(C5CN(CCO)C5)c4)ccn23)c1` [Example 217], the inhibition at 3 µM in test [2] amounted to 37%.

Regarding `CC(C)c1cc(N)nc(-c2ccn3c(-c4cccc(NC(=O)NCC(F)(F)F)c4)cnc3c2)n1` [Compound 323], the inhibition at 1 µM in test [2] turned out to be 0%.

Turning to `CNc1nc(-c2ccn3c(-c4cccc(NC(=O)NCC(F)(F)F)c4)cnc3c2)ncc1N` [Compound 313], the inhibition at 10 µM in test [2] was found to be 18%.

Consider `O=C(NCC(F)(F)F)Nc1cc(-c2cnc3cc(-c4ncccn4)ccn23)cc(C(F)(F)F)c1` [Compound 301], for which the IC50 in test [2] (setting [3]) came out at 2.81 µM.

Turning to `CCNC(=O)Nc1cccc(-c2cnc3cc(-c4ncc(C(F)(F)F)c(N)n4)ccn23)c1` [Example 235], the IC50 in test [2] (setting [3]) came out at 1.2 µM.

Turning to `O=C(NCC(F)(F)F)Nc1cccc(-c2cnc3cc(-c4cccc(CCO)c4)ccn23)c1` [Example 107, 1-(3-{7-[3-(2-Hydroxy-ethyl)-phenyl]-imidazo[1,2-a]pyridin-yl}-phenyl)-3-(2,2,2-trifluoro-ethyl)-urea formate], in test [2] (setting [4]), the IC50 came to 0.89 µM.

Turning to `CCOC(=O)Nc1nc(-c2ccn3c(-c4cccc(NC(=O)NCC(F)(F)F)c4)cnc3c2)ncc1F` [Compound 315], the inhibition at 10 µM in test [2] worked out at 35%.

On to `CC(=O)c1cnc(-c2ccn3c(-c4cccc(NC(=O)NCC(F)(F)F)c4)cnc3c2)nc1N` [Compound 308], for which, in test [2], the inhibition at 10 µM was found to be 0%.

As to `CN(C)c1cc(-c2ccn3c(-c4cccc(NC(=O)NCC(F)(F)F)c4)cnc3c2)nc(C(F)(F)F)n1` [Example 214], the IC50 in test [2] (setting [3]) came to 2.6 µM.

Regarding `O=C(NCC(F)(F)F)Nc1cc(CO)cc(-c2cnc3cc(-c4ccnc(C(F)(F)F)n4)ccn23)c1` [Compound 295], the inhibition at 10 µM in test [2] is 30%.

For the compound `COc1cnc(Cl)nc1-c1ccn2c(-c3cccc(NC(=O)NCC(F)(F)F)c3)cnc2c1` [Example 139, 1-{3-[7-(2-Chloro-5-methoxy-pyrimidin-4-yl)-imidazo[1,2-a]pyridin-3-yl]-phenyl}-3-(2,2,2-trifluoro-ethyl)-urea], the IC50 in test [2] (setting [3]) came to 3.6 µM.

With `O=C(NCC(F)(F)F)Nc1cccc(-c2cnc3cc(-c4nccc(N5CCNCC5)n4)ccn23)c1` [Compound 269], in test [2], the inhibition at 3 µM worked out at 0%.

In the case of `O=C(NCC(F)(F)F)Nc1cccc(-c2cnc3cc(-c4nnc(CCN5CCCC5)s4)ccn23)c1` [Example 241], the inhibition at 10 µM in test [2] came to 4.2%.

As to `COc1ncccc1-c1ccn2c(-c3cccc(NC(=O)NCC(F)(F)F)c3)cnc2c1` [Example 150, 1-{3-[7-(2-Methoxy-pyridin-3-yl)-imidazo[1,2-a]pyridin-3-yl]-phenyl}-3-(2,2,2-trifluoro-ethyl)-urea], the IC50 in test [2] (setting [3]) turned out to be 1.7 µM.

As to `COCc1cc(N)nc(-c2ccn3c(-c4cccc(NC(=O)NCC(F)(F)F)c4)cnc3c2)n1` [Compound 324], in test [2], the inhibition at 10 µM turned out to be 9.4%.

As to `CNc1cc(-c2ccn3c(-c4cccc(NC(=O)NCC(F)(F)F)c4)cnc3c2)nc(SC)n1` [Example 218], the inhibition at 10 µM in test [2] stood at 30%.

`CCNC(=O)Nc1cccc(-c2cnc3cc(-c4ccc(F)c(C)n4)ccn23)c1` [Example 228]: the IC50 in test [2] (setting [3]) turned out to be 5.1 µM.

Take `O=C(NCC(F)(F)F)Nc1cc(Cl)cc(-c2cnc3cc(-c4ncccn4)ccn23)c1` [Compound 309]: the IC50 in test [2] (setting [3]) was 2.3 µM.

Take `Cc1nc(-c2ccn3c(-c4cccc(NC(=O)NCC(F)(F)F)c4)cnc3c2)ccc1F` [Example 172]: in test [2] (setting [3]), the IC50 was 3.4 µM.

For `CC(=O)c1cnc(-c2ccn3c(-c4cccc(NC(=O)NCC(F)(F)F)c4)cnc3c2)nc1` [Compound 292], the inhibition at 10 µM in test [2] worked out at 38%.

Regarding `CC(C)(O)c1cccc(-c2ccn3c(-c4cccc(NC(=O)NCC(F)(F)F)c4)cnc3c2)c1` [Compound 320], in test [2] (setting [3]), the IC50 is 0.71 µM.

Regarding `O=C(NCC(F)(F)F)Nc1cc(Br)cc(-c2cnc3cc(-c4ccnc(C(F)(F)F)n4)ccn23)c1` [Compound 294], the inhibition at 3 µM in test [2] came out at 22%.

With `Cc1cn2nc(-c3ccn4c(-c5cc(NC(=O)NCC(F)(F)F)cc(OC(C)C)c5)cnc4c3)sc2n1` [Example 247], in test [2], the inhibition at 1 µM turned out to be 36%.

Regarding `Cn1ccnc1/C=C/c1ccn2c(-c3cccc(NC(=O)NCC(F)(F)F)c3)cnc2c1` [Example 189], the IC50 in test [2] (setting [3]) was 3.4 µM.

For `Cc1cn2nc(-c3ccn4c(-c5cccc(NC(=O)NCC(F)(F)F)c5)cnc4c3)sc2n1` [Example 225], the inhibition at 10 µM in test [2] was 0%.

Regarding `NC(=O)c1ccnc(-c2ccn3c(-c4cccc(NC(=O)NCC(F)(F)F)c4)cnc3c2)c1` [Example 209], the inhibition at 10 µM in test [2] was determined as 0%.

Consider `Cc1cc(-c2ccn3c(-c4cccc(NC(=O)NCC(F)(F)F)c4)cnc3c2)nc(C(F)(F)F)n1` [Example 237], for which, in test [2] (setting [3]), the IC50 turned out to be 0.12 µM.

As for `Nc1cccnc1-c1ccn2c(-c3cccc(NC(=O)NCC(F)(F)F)c3)cnc2c1` [Example 125, 1-{3-[7-(3-Amino-pyridin-2-yl)-imidazo[1,2-a]pyridin-3-yl]-phenyl}-3-(2,2,2-trifluoro-ethyl)-urea hydrochloride], the IC50 in test [2] (setting [4]) was determined as 2.1 µM.

As for `O=C(NCC(F)(F)F)Nc1cncc(-c2cnc3cc(-c4cnn(C5CNC5)c4)ccn23)c1` [Example 123, 1-{5-[7-(1-Azetidin-3-yl-1H-pyrazol-4-yl)-imidazo[1,2-a]pyridin-3-yl]-pyridin-3-yl}-3-(2,2,2-trifluoro-ethyl)-urea formate], the IC50 in test [2] (setting [4]) is 8.9 µM.

Turning to `Cc1nnc(-c2ccn3c(-c4cccc(NC(N)=O)c4)cnc3c2)o1` [Compound 328], the inhibition at 3 µM in test [2] turned out to be 34%.

As for `CN(C)c1ccnc(-c2ccn3c(-c4cccc(NC(=O)NCC(F)(F)F)c4)cnc3c2)n1` [Example 120, 1-{3-[7-(4-Dimethylamino-pyrimidin-2-yl)-imidazo[1,2-a]pyridin-3-yl]-phenyl}-3-(2,2,2-trifluoro-ethyl)-urea hydrochloride], the IC50 in test [2] (setting [4]) was 1.1 µM.

With `O=C(NCC(F)(F)F)Nc1cccc(-c2cnc3cc(-c4ncc(C(=O)O)cn4)ccn23)c1` [Compound 333], the inhibition at 1 µM in test [2] came out at 0%.

Regarding `O=C(NCC(F)(F)F)Nc1cccc(-c2cnc3cc(-c4ccc(OC5CCCNC5)nn4)ccn23)c1` (stereo not drawn) [Example 131, 1-(3-{7-[6-(Piperidin-3-yloxy)-pyridazin-3-yl]-imidazo[1,2-a]pyridin-3-yl}-phenyl)-3-(2,2,2-trifluoro-ethyl)-urea], in test [2], the inhibition at 10 µM is 2.9%.

With `Cc1nnc(-c2ccn3c(-c4cccc(NC(=O)NCC(F)(F)F)c4)cnc3c2)nc1C` [Example 118, 1-{3-[7-(5,6-Dimethyl-[1,2,4]triazin-3-yl)-imidazo[1,2-a]pyridin-3-yl]-phenyl}-3-(2,2,2-trifluoro-ethyl)-urea hydrochloride], the IC50 in test [2] (setting [4]) was found to be 0.88 µM.

Regarding `CNC(=O)c1ccnc(-c2ccn3c(-c4cccc(NC(=O)NCC(F)(F)F)c4)cnc3c2)n1` [Example 220], the IC50 in test [2] (setting [3]) came out at 1.5 µM.

As for `O=C(NCC(F)(F)F)Nc1cccc(-c2cnc3cc(-c4nccc(=O)[nH]4)ccn23)c1` [Example 190], the inhibition at 3 µM in test [2] was 35%.

As to `O=C(NCC(F)(F)F)Nc1cccc(-c2cnc3cc(-c4ccc(OC5CCNCC5)nn4)ccn23)c1` [Example 130, 1-(3-{7-[6-(Piperidin-4-yloxy)-pyridazin-3-yl]-imidazo[1,2-a]pyridin-3-yl}-phenyl)-3-(2,2,2-trifluoro-ethyl)-urea], the inhibition at 10 µM in test [2] stood at 26%.

As for `Nc1nc(-c2ccn3c(-c4cccc(NC(=O)NCC(F)(F)F)c4)cnc3c2)ncc1C(=O)O` [Compound 277], in test [2], the inhibition at 10 µM is 0%.

Consider `O=C(NCC(F)(F)F)Nc1cccc(-c2cnc3cc(-c4ccnc(C(F)(F)F)n4)ccn23)c1` [Example 199], for which the inhibition at 10 µM in test [2] turned out to be 62%.

For the origin of these results see patent US8796244B2, “Imidazopyridine derivatives as inhibitors of receptor tyrosine kinases” (Astex Therapeutics Ltd, priority 2008, dated 2014).
